In ChEMBL document CHEMBL1909294, “Translating clinical findings into knowledge in drug safety evaluation--drug induced liver injury prediction system (DILIps)” (PLoS Comput Biol, 2011):

How the values were obtained:
[1] = test system: Hepatotoxicity;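 as to HepSE cirrhosis: cirrhosis hepatic side effect score taken from the DILIps (drug-induced liver injury prediction) training set; call rule not given here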;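 as to HepSE elevated liver function tests: hepatic side effect score for raised liver function tests, as recorded in the DILIps training set used for predicting drug-induced liver injury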; as to HepSE hepatic failure: call rule not given here;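 as to HepSE hepatic necrosis: score of hepatic side effects for hepatic necrosis, drawn from the training data of DILIps, a prediction system for drug-induced liver injury; call rule not given here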;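 as to HepSE liver fatty: hepatic side effect score for fatty liver, taken from the DILIps training set for predicting drug-induced liver injury; call rule not given here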;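 as to HepSE liver function tests abnormal: hepatic side effect score taken from the DILIps (drug-induced liver injury prediction system) training data, here covering abnormal liver function test findings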
[2] = test system: Hepatotoxicity; remark: listed apart in the source;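 as to HepSE cirrhosis: cirrhosis hepatic side effect score taken from the DILIps (drug-induced liver injury prediction) training set; call rule not given here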;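 as to HepSE elevated liver function tests: hepatic side effect score for raised liver function tests, as recorded in the DILIps training set used for predicting drug-induced liver injury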; as to HepSE hepatic failure: call rule not given here;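 as to HepSE hepatic necrosis: score of hepatic side effects for hepatic necrosis, drawn from the training data of DILIps, a prediction system for drug-induced liver injury; call rule not given here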;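 as to HepSE liver fatty: hepatic side effect score for fatty liver, taken from the DILIps training set for predicting drug-induced liver injury; call rule not given here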;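 as to HepSE liver function tests abnormal: hepatic side effect score taken from the DILIps (drug-induced liver injury prediction system) training data, here covering abnormal liver function test findings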
[3] = test system: Hepatotoxicity; remark: listed apart in the source;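 as to HepSE cirrhosis: cirrhosis hepatic side effect score taken from the DILIps (drug-induced liver injury prediction) training set; call rule not given here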;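 as to HepSE elevated liver function tests: hepatic side effect score for raised liver function tests, as recorded in the DILIps training set used for predicting drug-induced liver injury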; as to HepSE hepatic failure: call rule not given here;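 as to HepSE hepatic necrosis: score of hepatic side effects for hepatic necrosis, drawn from the training data of DILIps, a prediction system for drug-induced liver injury; call rule not given here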;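 as to HepSE liver fatty: hepatic side effect score for fatty liver, taken from the DILIps training set for predicting drug-induced liver injury; call rule not given here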;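 as to HepSE liver function tests abnormal: hepatic side effect score taken from the DILIps (drug-induced liver injury prediction system) training data, here covering abnormal liver function test findings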
[4] = test system: Hepatotoxicity; remark: listed apart in the source;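 as to HepSE cirrhosis: cirrhosis hepatic side effect score taken from the DILIps (drug-induced liver injury prediction) training set; call rule not given here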;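 as to HepSE elevated liver function tests: hepatic side effect score for raised liver function tests, as recorded in the DILIps training set used for predicting drug-induced liver injury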; as to HepSE hepatic failure: call rule not given here;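 as to HepSE hepatic necrosis: score of hepatic side effects for hepatic necrosis, drawn from the training data of DILIps, a prediction system for drug-induced liver injury; call rule not given here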;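 as to HepSE liver fatty: hepatic side effect score for fatty liver, taken from the DILIps training set for predicting drug-induced liver injury; call rule not given here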;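 as to HepSE liver function tests abnormal: hepatic side effect score taken from the DILIps (drug-induced liver injury prediction system) training data, here covering abnormal liver function test findings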
[5] = test system: Hepatotoxicity; remark: listed apart in the source; as to HepSE hepatic failure: call rule not given here
[6] = test system: Hepatotoxicity; remark: listed apart in the source; as to HepSE hepatic failure: call rule not given here
[7] = test system: Hepatotoxicity; remark: listed apart in the source
[8] = test system: Hepatotoxicity; remark: listed apart in the source
[9] = test system: Hepatotoxicity; remark: listed apart in the source
[10] = test system: Hepatotoxicity; remark: listed apart in the source
[11] = test system: Hepatotoxicity; remark: listed apart in the source
[12] = test system: Hepatotoxicity; remark: listed apart in the source
[13] = test system: Hepatotoxicity; remark: listed apart in the source
[14] = test system: Hepatotoxicity; remark: listed apart in the source

| Compound | HepSE_hepatic necrosis [1] | HepSE_hepatitis [2] | HepSE_hepatic failure [3] | HepSE_liver fatty [4] | HepSE_elevated liver function tests [5] | HepSE_cirrhosis [6] | HepSE_liver function tests abnormal [7] | HepSE_hepatomegaly [8] | HepSE_Combined Scores [9] | HepSE_liver disease [10] | HepSE_cholecystitis [11] | HepSE_cholelithiasis [12] | HepSE_bilirubinemia [13] | HepSE_jaundice [14] | also measured |
| --- | --- | --- | --- | --- | --- | --- | --- | --- | --- | --- | --- | --- | --- | --- | --- |
| CN(C)S(=O)(=O)c1ccc2c(c1)N(CCCN1CCC(CCO)CC1)c1ccccc1S2 [PIPOTIAZINE] | 0 | 0 | 0 | 0 | 0 | 0 | 0 | 0 | 1 | 0 | 0 | 0 | 0 | 1 |  |
| CC(C)(C)NCC(O)c1ccc(O)c(CO)n1 (configuration not stated) [PIRBUTEROL] | 0 | 0 | 0 | 0 | 0 | 0 | 0 | 0 | 0 | 0 | 0 | 0 | 0 | 0 |  |
| CN1CCC(=C2c3ccccc3CCc3sccc32)CC1 [PIZOTYLINE] | 0 | 0 | 0 | 0 | 0 | 0 | 0 | 0 | 0 | 0 | 0 | 0 | 0 | 0 |  |
| COc1cc([C@@H]2c3cc4c(cc3[C@H](O)[C@H]3COC(=O)[C@H]23)OCO4)cc(OC)c1OC [PODOFILOX] | 0 | 0 | 0 | 0 | 0 | 0 | 0 | 0 | 0 | 0 | 0 | 0 | 0 | 0 |  |
| CN1C(CSCC(F)(F)F)Nc2cc(Cl)c(S(N)(=O)=O)cc2S1(=O)=O (configuration not stated) [POLYTHIAZIDE] | 0 | 0 | 0 | 0 | 0 | 0 | 0 | 0 | 1 | 0 | 0 | 0 | 0 | 1 |  |
| CC[C@@H]([C@H](C)O)n1ncn(-c2ccc(N3CCN(c4ccc(OC[C@@H]5CO[C@@](Cn6cncn6)(c6ccc(F)cc6F)C5)cc4)CC3)cc2)c1=O [POSACONAZOLE] | 0 | 1 | 1 | 0 | 0 | 0 | 1 | 1 | 6 | 0 | 0 | 0 | 1 | 1 |  |
| [Cl-].[K+] [POTASSIUM CHLORIDE] | 0 | 0 | 0 | 0 | 0 | 0 | 0 | 0 | 0 | 0 | 0 | 0 | 0 | 0 |  |
| C[n+]1ccccc1/C=N/O [PRALIDOXIME] | 0 | 0 | 0 | 0 | 0 | 0 | 0 | 0 | 0 | 0 | 0 | 0 | 0 | 0 |  |
| CCCN[C@H]1CCc2nc(N)sc2C1 [PRAMIPEXOLE] |  |  |  |  |  |  |  |  |  |  |  |  |  |  | HepSE_hepatic necrosis ([1]; Liver): 0; HepSE_hepatitis ([2]; Liver): 0; HepSE_hepatic failure ([3]; Liver): 0; HepSE_liver fatty ([4]; Liver): 0; HepSE_elevated liver function tests ([5]; Liver): 0; HepSE_cirrhosis ([6]; Liver): 0; HepSE_liver function tests abnormal ([7]; Liver): 0; HepSE_hepatomegaly ([8]; Liver): 0; HepSE_Combined Scores ([9]; Liver): 2; HepSE_liver disease ([10]; Liver): 0; HepSE_cholecystitis ([11]; Liver): 1; HepSE_cholelithiasis ([12]; Liver): 1; HepSE_bilirubinemia ([13]; Liver): 0; HepSE_jaundice ([14]; Liver): 0 |
| CC[C@H](C)C(=O)O[C@H]1C[C@H](O)C=C2C=C[C@H](C)[C@H](CC[C@@H](O)C[C@@H](O)CC(=O)O)[C@H]21 [PRAVASTATIN] | 1 | 1 | 0 | 0 | 0 | 1 | 0 | 0 | 4 | 0 | 0 | 0 | 0 | 1 |  |
| COc1cc2nc(N3CCN(C(=O)c4ccco4)CC3)nc(N)c2cc1OC [PRAZOSIN] | 0 | 0 | 0 | 0 | 0 | 0 | 0 | 0 | 0 | 0 | 0 | 0 | 0 | 0 |  |
| CCOC(=O)O[C@]1(C(=O)COC(=O)CC)CC[C@H]2[C@@H]3CCC4=CC(=O)C=C[C@]4(C)[C@H]3[C@@H](O)C[C@@]21C [PREDNICARBATE] | 0 | 0 | 0 | 0 | 0 | 0 | 0 | 0 | 0 | 0 | 0 | 0 | 0 | 0 |  |
| C[C@]12C=CC(=O)C=C1CC[C@@H]1[C@@H]2[C@@H](O)C[C@@]2(C)[C@H]1CC[C@]2(O)C(=O)CO [PREDNISOLONE] | 0 | 0 | 0 | 0 | 0 | 0 | 0 | 1 | 1 | 0 | 0 | 0 | 0 | 0 |  |
